Assay results from US20250115633A1, “PHOTODYNAMIC THERAPY AND DIAGNOSIS” (RMW CHO Group Limited, priority 2021, published 2025).
Structures can show the parent of a compound that is named as a salt. Where two headings read alike, the source gives them in different places.

Columns and labels:
[1] = test system: SKOV3 ovarian cancer cells; test: Inherent cytotoxicity (dark toxicity) in SKOV3 cells (AlamarBlue viability); format: cell-based, Human
Experimental: (§1) Samples were stored at 4° C. protected from light.
(§2) All data are shown as mean±SD (where appropriate).
Untreated cells were used as a control. […] All measurements were made in quadruplicate.

[2] = test system: SKOV3 ovarian cancer cells; test: Phototoxicity in SKOV3 cells after 660 nm light activation (AlamarBlue viability); format: cell-based, Human; settings: read-out: Phototoxicity μM (IC90)
Experimental: as §1, §2
Media was then replaced with fresh media containing AlamarBlue, and % viable cells remaining assessed as above. Controls included cells treated with chlorin e4 analogues but not activated by laser light; cells without chlorin e4 analogue treatment but with laser light; and untreated controls. All measurements were made in quadruplicate.

[3] = SKOV3, 24 hours incubation, no light activation
[4] = Homo sapiens, SK-OV-3, light or radiation study
[5] = SKOV3, 24 hours uptake, 660 nm, 50 mW/cm^2 for 5 mins (total 15 J/cm^2), * phototoxicity measured by LED

C=Cc1c(C)c2cc3nc(c(C)c4[nH]c(cc5nc(cc1[nH]2)C(C)=C5CC)c(C)c4C(=O)O)[C@@H](CCC(=O)O)[C@@H]3C [Chlorin e4 disodium, Chlorin e4 Disodium Salt, reference compound]
Dark toxicity μM (IC10) [1]: 40.23 µM
IC90 ([2]; SKOV3, 24 hours uptake, 660 nm, 50 mW/cm^2 for 5 mins (total 15 J/cm^2), values not marked * (laser)): 21.3 µM

CCC1=C(C)c2cc3[nH]c(cc4nc(c(C)c5[nH]c(cc1n2)c(C)c5C(=O)OC)[C@@H](CCC(=O)OC)[C@@H]4C)c(C)c3C(C)OCCCS[C@@H]1O[C@H](CO)[C@@H](O)[C@H](O)[C@H]1O (stereo partly drawn) [Compound 1, methyl (7S,8S)-18-ethyl-7-(3-methoxy-3-oxopropyl)-2,5,8,12,17-pentamethyl-13-(1-(3-(((2S,3R,4S,5S,6R)-3,4,5-trihydroxy-6-(hydroxymethyl)tetrahydro-2H-pyran-2-yl)thio)propoxy)ethyl)-7H,8H-porphyrin-3-carboxylate]
Dark toxicity μM (IC10) [1, 3]: 8.64 µM
IC90 [2, 4]: 0.06 µM

CCC1=C(C)c2cc3[nH]c(cc4nc(c(C)c5[nH]c(cc1n2)c(C)c5C(=O)OC)[C@@H](CCC(=O)OC)[C@@H]4C)c(C)c3COC(=O)NCCCOCCC[P+](c1ccccc1)(c1ccccc1)c1ccccc1 [Compound 4, chlorin e4 dimethyl ester 13-(N-(3-(3-triphenylphosphoniumpropoxy)propyl)chloride)carbamate]
Dark toxicity μM (IC10) [1, 3]: 3.881 µM
IC90 [2, 4]: 0.0024 µM

CCC1=C(C)c2cc3[nH]c(cc4nc(c(C)c5[nH]c(cc1n2)c(C)c5C(=O)OC)[C@@H](CCC(=O)OC)[C@@H]4C)c(C)c3COC(=O)NCCC[P+](c1ccccc1)(c1ccccc1)c1ccccc1 [Compound 5, chlorin e4 dimethyl ester 13-(N-(3-triphenylphosphoniumpropyl)bromide)carbamate]
Dark toxicity μM (IC10) [1, 3]: 3.046 µM
IC90 [2, 4]: 0.0029 µM

CCC1=C(C)c2cc3[nH]c(cc4nc(c(C)c5[nH]c(cc1n2)c(C)c5C(=O)OC)[C@@H](CCC(=O)OC)[C@@H]4C)c(C)c3COC(=O)NCC[P+](c1ccccc1)(c1ccccc1)c1ccccc1 [Compound 6, chlorin e4 dimethyl ester 13-(N-(2-triphenylphosphoniumethyl)bromide)carbamate]
Dark toxicity μM (IC10) [1, 3]: 2.281 µM
IC90 ([2]; Homo sapiens, SK-OV-3, light or radiation study, SKOV3, 24 hours uptake, 660 nm, 50 mW/cm^2 for 5 mins (total 15 J/cm^2), * phototoxicity measured by LED): 0.0018 µM

C=Cc1c(C)c2cc3nc(c(CC(=O)N[C@@H](CC(=O)O)C(=O)O)c4[nH]c(cc5nc(cc1[nH]2)C(C)=C5CC)c(C)c4C(=O)O)[C@@H](CCC(=O)O)[C@@H]3C [Talaporfin sodium, reference compound]
Dark toxicity μM (IC10) [1, 3]: 11.10 µM

chlorin e4 13-hydroxymethyl dimethyl ester
Dark toxicity μM (IC10) [1]: 42.830 µM
IC90 [2, 5]: 0.325 µM

chlorin e4 dimethyl ester 13-(6-(triphenylphosphonium bromide)hexyl)carbamate [Compound 3]
Dark toxicity μM (IC10) [1, 3]: 0.838 µM
IC90 [2, 5]: 0.0041 µM
